Results taken from patent US6812258B2, “Cancer treatment composition and method using natural plant essential oils” (Ecosmart Technologies, Inc., priority 1998, dated 2004).
Where two headings read alike, the source gives them in different places.

Tests used:
[1] = system: Human Epithelial Breast Cancer Cells (MCF-7); assay: Antiproliferative effect, 3H-thymidine incorporation in MCF-7 cells with and without estrogen; assay type: cell-based; conditions: 24 hours treatment; for activity at 50 µg/mL: Homo sapiens, MCF7, 24 h
Experimental: (§1) MCF-7 cells were cultured in growth medium supplemented with 10% fetal bovine serum (FBS). At 85% confluence, cells were sub-cultured in 5% FBS serum stripped medium, phenol red free for 24 hours prior to the treatment of the test chemical. After 24 hours of treatment cell proliferation was measured using ^3H-thymidine incorporation. These test chemicals were tested in the presence and absence of estrogen to address if they have anti-estrogenic activity in addition to their antiproliferative effect. The study was done in triplicate and a control was used with solvent only. Control received solvent only at <0.1% ethanol. Estrogen was tested at 1 nM (=0.27 ng E2/ml). Exemplary plant essential oil compounds were tested at 50 ug/ml.
as §1, with “(0.27” for “(=0.27”, “Plant” for “Exemplary plant”

[2] = system: MCF-7 cells; assay: Dose-response effect on E2-induced cell growth, viable cell count (trypan blue, haemocytometer); assay type: cell-based, human; conditions: for % anti-E2 / Cell count average / Cell count well #1 / Cell count well #2: Day 5
Experimental: MCF-7 cells were cultured in growth medium supplemented with 10% fetal bovine serum (FBS). At 85% confluence, cells were sub-cultured in 6 well petri-dishes and supplemented with 5% FBS serum stripped medium, phenol red free for 24 hours prior to the treatment of different concentrations of the test chemicals. After 5 days of treatment cells were trypsinized, collected using Eppendorf microcentrifuge. The cell pellets were resuspended in 1% trypan blue and three aliquots (10 ul each) of the viable cell suspension were counted using a haemocytometer assay. Each sample was then counted three times and the data shown is the average of three counts. These test chemicals were tested in the presence of 10 nM estrogen (=2.7 ng estrogen/ml). Two wells per test concentration were used. This experiment was repeated two times. Control received solvent only at <0.1% ethanol.

[3] = read-out: 3H-thymidine incorporation % of control value, Table 1, test chemical 50 ug/ml + estrogen 1 nM
[4] = read-out: 3H-thymidine incorporation % of control value, Table 1, test chemical 50 ug/ml alone
[5] = Table 1, test chemical 50 ug/ml + estrogen 1 nM
[6] = Table 1, test chemical 50 ug/ml alone
[7] = Table 1, test chemical 50 ug/ml + estrogen 1 nM, read-out: 3H-thymidine incorporation % of control value
[8] = Table 1, test chemical 50 ug/ml alone, read-out: 3H-thymidine incorporation % of control value
[9] = test chemical 1 μg/ml + E2 10 nM
[10] = test chemical 5 μg/ml + E2 10 nM
[11] = test chemical 10 μg/ml + E2 10 nM
[12] = test chemical 20 μg/ml + E2 10 nM
[13] = Table 2, test chemical 50 ug/ml + estrogen 1 nM, read-out: 3H-thymidine incorporation % of control value
[14] = Table 2, test chemical 50 ug/ml alone, read-out: 3H-thymidine incorporation % of control value
[15] = Table 2, test chemical 50 ug/ml + estrogen 1 nM
[16] = Table 2, test chemical 50 ug/ml alone
[17] = test chemical 50 μg/ml + E2 10 nM

## Cc1ccc(C(C)C)cc1O [Carvacrol]
[1]; [3]
  activity at 50 µg/mL: 43%
[1]; [4]
  activity at 50 µg/mL: 50%
[1]; [5]
  3H-thymidine incorporation % of estrogen value: 28%
  3H-thymidine incorporation dpm/ug protein: 181.7 dpm/ug protein
[1]; [6]
  3H-thymidine incorporation dpm/ug protein: 207.2 dpm/ug protein

## OC/C=C/c1ccccc1 [Cinnamic alcohol]
[1]; [7]
  activity at 50 µg/mL: 53%
[1]; [8]
  activity at 50 µg/mL: 4%
[1]; [5]
  3H-thymidine incorporation % of estrogen value: 34%
  3H-thymidine incorporation dpm/ug protein: 220.8 dpm/ug protein
[1]; [6]
  3H-thymidine incorporation dpm/ug protein: 18.5 dpm/ug protein

## CC(C)=CCCC(C)CC=O (centres unmarked) [Citronellal]
[1]; [7]
  activity at 50 µg/mL: 69%
[1]; [8]
  activity at 50 µg/mL: 20%
[1]; [5]
  3H-thymidine incorporation % of estrogen value: 43%
  3H-thymidine incorporation dpm/ug protein: 284.0 dpm/ug protein
[1]; [6]
  3H-thymidine incorporation dpm/ug protein: 85.2 dpm/ug protein

## CC12CCC(CC1)C(C)(C)O2 [Eucalyptol]
[1]; [7]
  activity at 50 µg/mL: 137%
[1]; [8]
  activity at 50 µg/mL: 96%
[1]; [5]
  3H-thymidine incorporation % of estrogen value: 86%
  3H-thymidine incorporation dpm/ug protein: 568.0 dpm/ug protein
[1]; [6]
  3H-thymidine incorporation dpm/ug protein: 398.0 dpm/ug protein

## C=CCc1ccc(O)c(OC)c1 [Eugenol]
[1]; [3]
  activity at 50 µg/mL: 70%
[1]; [4]
  activity at 50 µg/mL: 52%
[1]; [5]
  3H-thymidine incorporation % of estrogen value: 44%
  3H-thymidine incorporation dpm/ug protein: 289.1 dpm/ug protein
[1]; [6]
  3H-thymidine incorporation dpm/ug protein: 215.6 dpm/ug protein
[2]; 1 ug/ml, summary of Table 3
  protection against the E2-induced abnormal growth in cancer breast cells: 35%
[2]; [9]
  % anti-E2: 25.00%
  Cell count average: 24.0 × (10^4)/ml
  Cell count well #1: 19 × (10^4)/ml
  Cell count well #2: 29 × (10^4)/ml
[2]; [10]
  % anti-E2: 41.70%
  Cell count average: 19.0 × (10^4)/ml
  Cell count well #1: 19 × (10^4)/ml
  Cell count well #2: 19 × (10^4)/ml
[2]; [11]
  % anti-E2: 50.00%
  Cell count average: 16.0 × (10^4)/ml
  Cell count well #1: 18 × (10^4)/ml
  Cell count well #2: 14 × (10^4)/ml
[2]; [12]
  % anti-E2: 60.40%
  Cell count average: 13.0 × (10^4)/ml
  Cell count well #1: 10 × (10^4)/ml
  Cell count well #2: 16 × (10^4)/ml

## COc1ccccc1O [Guaiacol]
[1]; [13]
  activity at 50 µg/mL: 180%
[1]; [14]
  activity at 50 µg/mL: 163%
[1]; [15]
  3H-thymidine incorporation % of estrogen value: 119%
  3H-thymidine incorporation dpm/μg protein: 788.8 dpm/μg protein
[1]; [16]
  3H-thymidine incorporation dpm/μg protein: 712.3 dpm/μg protein

## COC(=O)c1ccccc1O [Methyl salicylate]
[1]; [7]
  activity at 50 µg/mL: 168%
[1]; [8]
  activity at 50 µg/mL: 107%
[1]; [5]
  3H-thymidine incorporation % of estrogen value: 106%
  3H-thymidine incorporation dpm/ug protein: 693.9 dpm/ug protein
[1]; [6]
  3H-thymidine incorporation dpm/ug protein: 444.0 dpm/ug protein

## C=C(C)[C@H]1CC=C(C)CC1 [R-(+)-Limonene]
[1]; [15]
  3H-thymidine incorporation % of control value: 119.3%
  3H-thymidine incorporation % of estrogen value: 79%
  3H-thymidine incorporation dpm/μg protein: 522.6 dpm/μg protein
[1]; [16]
  3H-thymidine incorporation % of control value: 89.7%
  3H-thymidine incorporation dpm/μg protein: 393.1 dpm/μg protein

## Cc1ccc(C(C)C)c(O)c1 [Thymol]
[1]; [7]
  activity at 50 µg/mL: 26%
[1]; [8]
  activity at 50 µg/mL: 23%
[1]; [5]
  3H-thymidine incorporation % of estrogen value: 16%
  3H-thymidine incorporation dpm/ug protein: 108.2 dpm/ug protein
[1]; [6]
  3H-thymidine incorporation dpm/ug protein: 97.3 dpm/ug protein
[2]; 5 ug/ml, summary of Table 3
  protection against the E2-induced abnormal growth in cancer breast cells: 40%
[2]; [9]
  % anti-E2: 00.00%
  Cell count average: 32.0 × (10^4)/ml
  Cell count well #1: 32 × (10^4)/ml
  Cell count well #2: 32 × (10^4)/ml
[2]; [10]
  % anti-E2: 40.60%
  Cell count average: 19.0 × (10^4)/ml
  Cell count well #1: 20 × (10^4)/ml
  Cell count well #2: 18 × (10^4)/ml
[2]; [11]
  % anti-E2: 62.50%
  Cell count average: 12.0 × (10^4)/ml
  Cell count well #1: 12 × (10^4)/ml
  Cell count well #2: 12 × (10^4)/ml
[2]; [12]
  % anti-E2: 62.50%
  Cell count average: 12.0 × (10^4)/ml
  Cell count well #1: 10 × (10^4)/ml
  Cell count well #2: 14 × (10^4)/ml

## C/C=C/c1ccc(OC)cc1 [Trans-anethole]
[1]; [7]
  activity at 50 µg/mL: 142%
[1]; [8]
  activity at 50 µg/mL: 105%
[1]; [5]
  3H-thymidine incorporation % of estrogen value: 89%
  3H-thymidine incorporation dpm/ug protein: 589.8 dpm/ug protein
[1]; [6]
  3H-thymidine incorporation dpm/ug protein: 434.9 dpm/ug protein

## OCc1ccccc1 [benzyl alcohol]
[2]; [17]
  % anti-E2: 35.40%
  Cell count average: 21.0 × (10^4)/ml
  Cell count well #1: 24 × (10^4)/ml
  Cell count well #2: 18 × (10^4)/ml

## O=C/C=C\c1ccccc1 [cinnamic aldehyde]
[2]; 50 ug/ml, summary of Table 3
  control against the E2-induced abnormal growth in cancer breast cells: approximately 96%
[2]; [17]
  % anti-E2: 96.90%
  Cell count average: 01.0 × (10^4)/ml
  Cell count well #1: 00 × (10^4)/ml
  Cell count well #2: 02 × (10^4)/ml

## Cc1ccc(C(C)C)cc1 [p-cymene]
[1]; [7]
  activity at 50 µg/mL: 152%
[1]; [8]
  activity at 50 µg/mL: 101%
[1]; [5]
  3H-thymidine incorporation % of estrogen value: 96%
  3H-thymidine incorporation dpm/ug protein: 632.0 dpm/ug protein
[1]; [6]
  3H-thymidine incorporation dpm/ug protein: 419.0 dpm/ug protein

## CC1=CC[C@H](C(C)C)C=C1 [α-phellandrene]
[1]; [15]
  3H-thymidine incorporation % of control value: 145.0%
  3H-thymidine incorporation % of estrogen value: 96%
  3H-thymidine incorporation dpm/μg protein: 635.3 dpm/μg protein
[1]; [16]
  3H-thymidine incorporation % of control value: 79.5%
  3H-thymidine incorporation dpm/μg protein: 348.4 dpm/μg protein

## CC1=CCC(C(C)(C)O)CC1 (stereo not drawn) [α-terpineol]
[1]; [7]
  activity at 50 µg/mL: 164%
[1]; [8]
  activity at 50 µg/mL: 116%
[1]; [13]
  activity at 50 µg/mL: 145%
[1]; [14]
  activity at 50 µg/mL: 112%
[1]; [5]
  3H-thymidine incorporation % of estrogen value: 103%
  3H-thymidine incorporation dpm/ug protein: 679.1 dpm/ug protein
[1]; [6]
  3H-thymidine incorporation dpm/ug protein: 480.5 dpm/ug protein
[1]; [15]
  3H-thymidine incorporation % of estrogen value: 96%
  3H-thymidine incorporation dpm/μg protein: 636.7 dpm/μg protein
[1]; [16]
  3H-thymidine incorporation dpm/μg protein: 490.7 dpm/μg protein
